This is an account of results in PMC12332157, “A preclinical study on the influence of linkers in [^68Ga]Ga-NOTA-X-RM26 radiotracers for PET imaging of GRPR expression” (EJNMMI Research, 2025).

Starred links: 1 amine or outer side, 2 acyl side, 3 side chain; linkers in the order of their positions; H or OH if unused. Non-standard residues stand in square brackets, D forms with d. Residues, ends and D or L forms follow the SMILES beside them. *: point of attachment. NOTA = O=C(O)CN1CCN(CC(=O)O)CCN(CC(=O)*)CC1; Sta = CC(C)C[C@H](N)[C@@H](O)CC(=O)O; X2 = O=C(COc1cccc(CN[*:1])c1)[*:2]

This data set concerns PC-3 xenografts. In words: PET/CT imaging of mice bearing PC-3 xenografts. The format is in vivo. Particulars: 2 h post injection, 100 pmol i.v. On the procedure:
For PET/CT imaging, animals bearing PC-3 xenografts were used. The animals received a single intravenous injection of the corresponding ^68Ga-radiolabeled peptide (100 pmol, 1.2 MBq) and 2 h post injection they were euthanized using CO2. For image acquisition, Nano PET 3T (PET/MRI) and nanoScan (SPECT/CT) (Mediso Medical Imaging Systems, Budapest, Hungary) tomographs were used. Reconstruction of the PET scans was conducted using Nucline nanoScan 3.04.014.0000 software. CT data were reconstructed using Filter Back Projection in Nucline 2.03 Software (Mediso Medical Imaging Systems Ltd., Budapest, Hungary). For their fusion, Nucline 2.03 Software was used, and PET images are presented as maximum intensity projections (MIP) with an equivalent color scale.

As to `CC(=O)N[C@@H](CCCCNC(=O)CN1CCN(CC(=O)O)CCN(CC(=O)O)CC1)C(=O)NCc1cccc(OCC(=O)N[C@H](Cc2ccccc2)C(=O)N[C@@H](CCC(N)=O)C(=O)N[C@@H](Cc2c[nH]c3ccccc23)C(=O)N[C@@H](C)C(=O)N[C@H](C(=O)NCC(=O)N[C@@H](Cc2c[nH]cn2)C(=O)N[C@@H](CC(C)C)[C@@H](O)CC(=O)N[C@@H](CC(C)C)C(N)=O)C(C)C)c1` [NOTA-mMA-RM26] (Ac-K(NOTA)[X2][dF]QWAVGH[Sta]L-NH2), the “uptake in PC-3 tumors on PET images” value is recorded as “lower uptake”.
